Measured values as given in patent US20090082395A1, “SOLUBLE EPOXIDE HYDROLASE INHIBITORS” (Arete Therapeutics, Inc., priority 2007, published 2009).

Legend:
[1] = system: soluble epoxide hydrolase (sEH); assay: Fluorescent assay for mouse and human soluble epoxide hydrolase (CMNPC substrate); type: biochemical; conditions: recombinant sEH, species (mouse or human) not given
Source text: Fluorescent Assay for Mouse and Human Soluble Epoxide Hydrolase
Recombinant mouse sEH (MsEH) and human sEH (HsEH) were produced in a baculovirus expression system as previously reported. Grant et al., J. Biol. Chem., 268:17628-17633 (1993); Beetham et al., Arch. Biochem. Biophys., 305:197-201 (1993). The expressed proteins were purified from cell lysate by affinity chromatography. Wixtrom et al., Anal. Biochem., 169:71-80 (1988). Protein concentration was quantified using the Pierce BCA assay using bovine serum albumin as the calibrating standard. The preparations were at least 97% pure as judged by SDS-PAGE and scanning densitometry. They contained no detectable esterase or glutathione transferase activity which can interfere with the assay. The assay was also evaluated with similar results in crude cell lysates or homogenate of tissues.
The IC50s for each inhibitor were according to the following procedure:
Cyano(2-methoxynaphthalen-6-yl)methyl (3-phenyloxiran-2-yl)methyl carbonate (CMNPC; Jones P. D. et. al.; Analytical Biochemistry 2005; 343: pp. 66-75)
Bis/Tris HCl 25 mM pH 7.0 containing 0.1 mg/mL of BSA (buffer A)
CMNPC at 0.25 mM in DMSO.
Mother solution of enzyme in buffer A (Mouse sEH at 6 μg/mL and Human sEH at 5 μg/mL). Inhibitor dissolved in DMSO at the appropriate concentration.
In a black 96 well plate, fill all the wells with 150 μL of buffer A. Add 2 μL of DMSO in well A2 and A3, and then add 2 μL of inhibitor solution in A1 and A4 through A12. Add 150 μL of buffer A in row A, then mix several time and transfer 150 μL to row B. Repeat this operation up to row H. The 150 μL removed from row H go to the trash. Add 20 μL of buffer A in column 1 and 2, then add 20 μL of enzyme solution to column 3 to 12. Incubate the plate for 5 minutes in the plate reader at 30° C. During incubation prepare the working solution of substrate by mixing 3.68 mL of buffer A (4×0.920 mL) with 266 μL (2×133 μL) of substrate solution). At t=0, add 30 μL of working substrate solution with multi-channel pipette labeled “Briggs 303” and start the reading ([S]final: 5 μM). Read with ex: 330 nm (20 nm) and em: 465 nm (20 nm) every 30 second for 10 minutes. The velocities are used to analyze and calculate the IC50s.

| % Inh ([1]; compound concentration 2000 nM) [%] | melting point [°C] | % Inh ([1]; compound concentration 50 nM) [%] | % Inh ([1]; compound concentration 500 nM) [%] | SMILES |
| --- | --- | --- | --- | --- |
| 98 | 259 to 263 |  |  | O=C(Nc1ccc(C(F)(F)F)cc1)Nc1ccc2ncccc2c1 [Compound 1, 1-(quinolin-6-yl)-3-(4-(trifluoromethyl)phenyl)urea] |
|  | 195 to 200 | 91 |  | O=C(Nc1ccc(C(F)(F)F)cc1)Nc1ccc2c(c1)OC(F)(F)O2 [Compound 3, 1-(2,2-difluorobenzol[d][1,3]dioxol-5-yl)-3-(4-(trifluoromethyl)phenyl)urea] |
|  |  |  | 89 | O=C(Nc1cccc(C(F)(F)F)c1)Nc1ccc2c(c1)OC(F)(F)O2 [Compound 5, 1-(2,2-difluorobenzo[d][1,3]dioxol-5-yl)-3-(3-(trifluoromethyl)phenyl)urea] |
|  | 252 to 254 | 92 |  | Cn1ncc2cc(NC(=O)Nc3ccc(C(F)(F)F)cc3)ccc21 [Compound 8, 1-(1-methyl-1H-indazol-5-yl)-3-(4-(trifluoromethyl)phenyl)urea] |
|  | 240 to 243 | 98 |  | Cc1nc2cc(NC(=O)Nc3ccc(C(F)(F)F)cc3)ccc2o1 [Compound 11, 1-(2-methylbenzo[d]oxazol-5-yl)-3-(4-(trifluoromethyl)phenyl)urea] |
|  | 184 to 186 |  | 93 | Cc1nc2cc(NC(=O)Nc3cccc(C(F)(F)F)c3)ccc2o1 [Compound 12, 1-(2-methylbenzo[d]oxazol-5-yl)-3-(3-(trifluoromethyl)phenyl)urea] |
|  | 213 to 215 |  | 85 | O=C(Nc1cccc(C(F)(F)F)c1)Nc1ccc2nc(C(F)(F)F)[nH]c2c1 [Compound 16, 1-(2-(trifluoromethyl)-1H-benzo[d]imidazol-5-yl)-3-(3-(trifluoromethyl)phenyl)urea] |
|  | 279 to 282 | 86 |  | O=C(Nc1cccc(C(F)(F)F)c1)Nc1ccc2c(c1)COC2=O [Compound 17, 1-(1-oxo-1,3-dihydroisobenzofuran-5-yl)-3-(3-(trifluoromethyl)phenyl)urea] |
|  |  | 87 |  | O=C(Nc1ccc(C(F)(F)F)cc1)Nc1ccc2c(c1)COC2=O [Compound 18, 1-(1-oxo-1,3-dihydroisobenzofuran-5-yl)-3-(4-(trifluoromethyl)phenyl)urea] |

Further lines, the compound ahead of its results:

| SMILES | % Inh ([1]; compound concentration 2000 nM) [%] | melting point [°C] | % Inh ([1]; compound concentration 50 nM) [%] | % Inh ([1]; compound concentration 500 nM) [%] |
| --- | --- | --- | --- | --- |
| O=C(Nc1ccc2c(c1)OCCO2)NC12CC3CC(CC(C3)C1)C2 [Compound 2, 1-adamantan-1-yl-3-(2,3-dihydrobenzo[b][1,4]dioxin-6-yl)urea] | 98 |  |  |  |
| O=C(Nc1ccc(Cl)cc1)Nc1ccc2[nH]c(C(F)(F)F)nc2c1 [Compound 4, 1-(4-chlorophenyl)-3-(2-(trifluoromethyl)-1H-benzo[d]imidazol-5-yl)urea] |  | 264 to 268 |  | 91 |
| Cc1cc2cc(NC(=O)Nc3ccc(Cl)cc3)ccc2[nH]1 [Compound 6, 1-(4-chlorophenyl)-3-(2-methyl-1H-indol-5-yl)urea] |  | 257 to 260 | 89 |  |
| O=C(Nc1ccc(Cl)cc1)Nc1ccc2c(c1)OC(F)(F)O2 [Compound 7, 1-(4-chlorophenyl)-3-(2,2-difluorobenzo[d][1,3]dioxol-5-yl)urea] |  | 231 to 233 | 95 |  |
| Cc1cc2cc(NC(=O)NC34CC5CC(CC(C5)C3)C4)ccc2[nH]1 [Compound 9, 1-adamantan-1-yl-3-(2-methyl-1H-indol-5-yl)urea] |  | 146 to 152 | 85 |  |
| O=C(Nc1ccc2c(c1)OC(F)(F)O2)NC12CC3CC(CC(C3)C1)C2 [Compound 10, 1-adamantan-1-yl-3-(2,2-difluorobenzo[d][1,3]dioxol-5-yl)urea] |  | 213 to 215 | 99 |  |
| Cc1nc2cc(NC(=O)NC34CC5CC(CC(C5)C3)C4)ccc2s1 [Compound 13, 1-adamantan-1-yl-3-(2-methylbenzo[d]thiazol-5-yl)urea] |  | 209 to 214 | 92 |  |
| O=C(Nc1ccc(C(F)(F)F)cc1)Nc1ccc2[nH]c(C(F)(F)F)nc2c1 [Compound 14, 1-(2-(trifluoromethyl)-1H-benzo[d]imidazol-5-yl)-3-(4-(trifluoromethyl)phenyl)urea] |  | 223 to 228 | 80 |  |
| O=C(Nc1ccc2[nH]c(C(F)(F)F)nc2c1)NC12CC3CC(CC(C3)C1)C2 [Compound 15, 1-adamantan-1-yl-3-(2-(trifluoromethyl)-1H-benzo[d]imidazol-5-yl)urea] |  | 189 to 192 |  | 93 |
